Assay results as given in PubChem BioAssay AID330 (DTP/NCI, 2004).
Several values for one entry are separate records, joined by “and”; a condition that tells them apart may be missing. Identical values can stand only once. Toxic doses and inconclusive results are not listed. The calls were made as follows: active = survival T/C of 150% or more; inactive = T/C below 125% in these data.

System: P388 leukemia ip, CD2F1 mice, survival T/C
Assay: NCI In Vivo Anticancer Drug Screen. Data for tumor model P388 Leukemia (intraperitoneal) in CD2F1 (CDF1) mice
Settings: endpoint: median survival time, higher = longer survival
How it was run: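 Mice carrying the transplanted tumor received test compound or vehicle. Survival was recorded in each group, and the value is the treated-group measurement divided by that of the vehicle-treated control group.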

[1] = dose: 100.0 mg/kg/injection, schedule: Q01DX005 (ip), vehicle: saline with Tween-80
[2] = dose: 200.0 mg/kg/injection, schedule: Q01DX005 (ip), vehicle: saline with Tween-80
[3] = dose: 50.0 mg/kg/injection, schedule: Q01DX005 (ip), vehicle: Klucel (hydroxypropylcellulose) (HPC)
[4] = dose: 25.0 mg/kg/injection, schedule: Q01DX009 (ip), vehicle: saline
[5] = dose: 50.0 mg/kg/injection, schedule: Q01DX005 (ip), vehicle: saline with Tween-80
[6] = dose: 100.0 mg/kg/injection, schedule: Q04DX003 (ip), vehicle: saline with Tween-80

Measured: T/C

Nc1ccc(NCCCC2CCCN3CCCCC23)c2c(=O)c3ccccc3sc12 (stereo not given)
inactive: dose: 13.5 mg/kg/injection, schedule: Q01DX005 (ip), vehicle: saline with Tween-80 104 % of control | dose: 27.0 mg/kg/injection, schedule: Q01DX005 (ip), vehicle: saline with Tween-80 91 % of control | dose: 54.0 mg/kg/injection, schedule: Q01DX005 (ip), vehicle: saline with Tween-80 101 % of control | [1] 110 % of control | dose: 108.0 mg/kg/injection, schedule: Q01DX005 (ip), vehicle: saline with Tween-80 107 % of control | [2] 120 % of control

Cn1c2c(c3cc(Cl)ccc31)-c1ncncc1CC2
inactive: dose: 12.5 mg/kg/injection, schedule: Q01DX005 (ip), vehicle: Klucel (hydroxypropylcellulose) (HPC) 97 % of control | dose: 25.0 mg/kg/injection, schedule: Q01DX005 (ip), vehicle: Klucel (hydroxypropylcellulose) (HPC) 97 % of control | [3] 101 % of control | dose: 100.0 mg/kg/injection, schedule: Q04DX002 (ip), vehicle: Klucel (hydroxypropylcellulose) (HPC) 92 % of control

COc1ccccc1C1COC(c2ccccc2)(c2ccccc2)S1 (stereo not given)
inactive: [4] 108 % of control | dose: 50.0 mg/kg/injection, schedule: Q01DX009 (ip), vehicle: saline 108 % of control | dose: 100.0 mg/kg/injection, schedule: Q01DX009 (ip), vehicle: saline 108 % of control

CC(C)CCCCCCCCCCCCC(=O)NCC(=O)NC1C(C)OC(Nc2ncnc3c2ncn3C)C(O)C1O (stereo not given)
inactive: dose: 1.56 mg/kg/injection, schedule: Q01DX009 (ip), vehicle: distilled water + Tween-80 98 % of control | dose: 3.13 mg/kg/injection, schedule: Q01DX009 (ip), vehicle: distilled water + Tween-80 95 % of control | dose: 6.25 mg/kg/injection, schedule: Q01DX009 (ip), vehicle: distilled water + Tween-80 101 % of control | dose: 12.5 mg/kg/injection, schedule: Q01DX009 (ip), vehicle: distilled water + Tween-80 98 % of control | dose: 25.0 mg/kg/injection, schedule: Q01DX009 (ip), vehicle: distilled water + Tween-80 90 % of control | dose: 50.0 mg/kg/injection, schedule: Q01DX009 (ip), vehicle: distilled water + Tween-80 91 % of control

CCCCC(C(=O)OCC)/C(C)=N\NC(N)=S (stereo not given)
inactive: dose: 60.0 mg/kg/injection, schedule: Q01DX005 (ip), vehicle: Klucel (hydroxypropylcellulose) (HPC) 100 % of control | dose: 120.0 mg/kg/injection, schedule: Q01DX005 (ip), vehicle: Klucel (hydroxypropylcellulose) (HPC) 99 % of control | dose: 240.0 mg/kg/injection, schedule: Q01DX005 (ip), vehicle: Klucel (hydroxypropylcellulose) (HPC) 98 % of control

CCOc1cc2c(cc1Cc1ccc(OC)cc1OC)OCO2
inactive: dose: 60.0 mg/kg/injection, schedule: Q01DX005 (ip), vehicle: saline with Tween-80 104 % of control and 107 % of control and 112 % of control | dose: 120.0 mg/kg/injection, schedule: Q01DX005 (ip), vehicle: saline with Tween-80 102 % of control and 107 % of control | dose: 240.0 mg/kg/injection, schedule: Q01DX005 (ip), vehicle: saline with Tween-80 111 % of control and 123 % of control | dose: 480.0 mg/kg/injection, schedule: Q01DX005 (ip), vehicle: saline with Tween-80 118 % of control

NC(=O)Nc1nc(C(F)(F)F)cc(=O)[nH]1
inactive: dose: 50.0 mg/kg/injection, schedule: Q01DX009 (ip), vehicle: saline with Tween-80 103 % of control | dose: 100.0 mg/kg/injection, schedule: Q01DX009 (ip), vehicle: saline with Tween-80 106 % of control | dose: 200.0 mg/kg/injection, schedule: Q01DX009 (ip), vehicle: saline with Tween-80 99 % of control

c1ccc2c(c1)ccc1cc3cccc[n+]3cc12
inactive: dose: 0.5 mg/kg/injection, schedule: Q01DX009 (ip), vehicle: saline 92 % of control | dose: 1.0 mg/kg/injection, schedule: Q01DX009 (ip), vehicle: saline 103 % of control | dose: 2.0 mg/kg/injection, schedule: Q01DX009 (ip), vehicle: saline 92 % of control

COc1nc2c(c(=O)n1C)C(=O)CN2C1OC(COC(C)=O)C(OC(C)=O)C(OC(C)=O)C1OC(C)=O (stereo not given)
inactive: [5] 103 % of control | [1] 108 % of control | [2] 103 % of control

Cc1cccc(C2(Br)C(=O)c3ccccc3C2=O)c1
inactive: dose: 100.0 mg/kg/injection, schedule: Q04DX002 (ip), vehicle: saline 102 % of control | dose: 200.0 mg/kg/injection, schedule: Q04DX002 (ip), vehicle: saline 103 % of control | dose: 400.0 mg/kg/injection, schedule: Q04DX002 (ip), vehicle: saline 102 % of control

COc1ccc2c(c1)OC(C)(C)C=C2
inactive: dose: 8.75 mg/kg/injection, schedule: Q01DX009 (ip), vehicle: saline with Tween-80 87 % of control | dose: 17.5 mg/kg/injection, schedule: Q01DX009 (ip), vehicle: saline with Tween-80 98 % of control | dose: 35.0 mg/kg/injection, schedule: Q01DX009 (ip), vehicle: saline with Tween-80 106 % of control | dose: 70.0 mg/kg/injection, schedule: Q01DX009 (ip), vehicle: saline with Tween-80 110 % of control

CC1(C)O[C@@H]2C[C@H]3[C@@H]4CCC5=CC(=O)CC[C@]5(C)[C@@]4(F)[C@@H](O)C[C@]3(C)[C@]2(C(=O)CO)O1
inactive: dose: 12.5 mg/kg/injection, schedule: Q01DX009 (ip), vehicle: saline with Tween-80 109 % of control | dose: 25.0 mg/kg/injection, schedule: Q01DX009 (ip), vehicle: saline with Tween-80 86 % of control

CCCCCCC(Cn1ccnc1)c1ccccc1Cl (stereo not given)
inactive: dose: 25.0 mg/kg/injection, schedule: Q04DX003 (ip), vehicle: saline with Tween-80 100 % of control | dose: 50.0 mg/kg/injection, schedule: Q04DX003 (ip), vehicle: saline with Tween-80 98 % of control | [6] 106 % of control

CCN1CC2(C)CCC(OC)C34C5CC6CCC(O)(C5C(=O)O6)C(C(O)C23)C14 (stereo not given)
inactive: dose: 25.0 mg/kg/injection, schedule: Q01DX009 (ip), vehicle: Klucel (hydroxypropylcellulose) (HPC) 100 % of control | dose: 50.0 mg/kg/injection, schedule: Q01DX009 (ip), vehicle: Klucel (hydroxypropylcellulose) (HPC) 98 % of control | dose: 100.0 mg/kg/injection, schedule: Q01DX009 (ip), vehicle: Klucel (hydroxypropylcellulose) (HPC) 95 % of control

C[N+]1(CCC(=O)c2ccccc2)CCCCC1
inactive: dose: 12.5 mg/kg/injection, schedule: Q01DX009 (ip), vehicle: saline 97 % of control | [4] 107 % of control

CCCCCn1cnc2c(=S)nc[nH]c21
inactive: [6] 104 % of control | dose: 200.0 mg/kg/injection, schedule: Q04DX003 (ip), vehicle: saline with Tween-80 100 % of control | dose: 400.0 mg/kg/injection, schedule: Q04DX003 (ip), vehicle: saline with Tween-80 90 % of control

C/C(=N\NC(=S)Nc1cccc2cccc(S(=O)(=O)O)c12)c1ccccn1
inactive: [5] 102 % of control | [1] 100 % of control | [2] 112 % of control

COC(=O)c1cc(-c2cccnc2)[nH]c(=O)c1C#N
inactive: dose: 60.0 mg/kg/injection, schedule: Q01DX005 (ip), vehicle: saline 104 % of control | dose: 120.0 mg/kg/injection, schedule: Q01DX005 (ip), vehicle: saline 100 % of control

O=C1NC(Cc2c[nH]c3ccccc23)C(=O)N2CCCC12 (stereo not given)
inactive: [3] 100 % of control | dose: 100.0 mg/kg/injection, schedule: Q01DX005 (ip), vehicle: Klucel (hydroxypropylcellulose) (HPC) 104 % of control | dose: 200.0 mg/kg/injection, schedule: Q01DX005 (ip), vehicle: Klucel (hydroxypropylcellulose) (HPC) 97 % of control

O=C1C=CC(=O)C1=Cc1ccccc1
inactive: dose: 2.5 mg/kg/injection, schedule: Q04DX002 (ip), vehicle: saline with Tween-80 95 % of control | dose: 5.0 mg/kg/injection, schedule: Q04DX002 (ip), vehicle: saline with Tween-80 97 % of control
